Legend:
Type in all cases: cell-based
human TLR7 = target: T1, human TLR7 (Homo sapiens, UniProt Q9NYK1); test: TLR7 inhibition reporter assay (HEK-Blue SEAP); conditions: HEK-Blue cells overexpressing human TLR7, stimulated with gardiquimod 7.5 μM, 22 hour incubation
T1 construct: host or cells: HEK-Blue cells
T1 sequence (Q9NYK1 27-1049): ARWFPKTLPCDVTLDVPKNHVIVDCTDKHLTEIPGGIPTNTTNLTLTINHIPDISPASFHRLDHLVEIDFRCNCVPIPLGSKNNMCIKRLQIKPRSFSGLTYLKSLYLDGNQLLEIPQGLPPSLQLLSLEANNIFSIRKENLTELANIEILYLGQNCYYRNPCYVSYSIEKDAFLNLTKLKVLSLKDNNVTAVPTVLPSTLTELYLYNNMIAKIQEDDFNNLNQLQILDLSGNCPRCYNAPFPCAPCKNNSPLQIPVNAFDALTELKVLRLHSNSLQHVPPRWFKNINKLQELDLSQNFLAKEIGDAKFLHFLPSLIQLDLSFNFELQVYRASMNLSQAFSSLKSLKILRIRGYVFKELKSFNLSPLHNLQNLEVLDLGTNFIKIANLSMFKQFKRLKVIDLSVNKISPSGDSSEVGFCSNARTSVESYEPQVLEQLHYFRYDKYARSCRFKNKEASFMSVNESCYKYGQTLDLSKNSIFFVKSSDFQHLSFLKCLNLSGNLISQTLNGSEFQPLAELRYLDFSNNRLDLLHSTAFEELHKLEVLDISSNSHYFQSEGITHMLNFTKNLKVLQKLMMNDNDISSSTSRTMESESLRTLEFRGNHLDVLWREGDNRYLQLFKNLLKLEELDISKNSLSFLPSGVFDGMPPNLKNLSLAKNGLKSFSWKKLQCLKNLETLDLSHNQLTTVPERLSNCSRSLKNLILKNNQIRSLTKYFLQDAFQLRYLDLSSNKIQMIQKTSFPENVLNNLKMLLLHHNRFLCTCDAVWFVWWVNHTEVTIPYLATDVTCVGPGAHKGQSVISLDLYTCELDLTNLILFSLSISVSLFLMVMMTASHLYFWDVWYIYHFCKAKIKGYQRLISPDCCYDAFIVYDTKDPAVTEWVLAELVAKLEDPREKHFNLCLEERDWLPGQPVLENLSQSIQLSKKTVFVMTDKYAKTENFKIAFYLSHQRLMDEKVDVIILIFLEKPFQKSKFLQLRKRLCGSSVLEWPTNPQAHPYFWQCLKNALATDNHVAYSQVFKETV
Outline: (§1)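 Stimulation followed a 30 min room-temperature compound exposure (final 0.05 nM-50 μM): TLR7 cells with 7.5 μM gardiquimod, TLR8 with 15.9 μM R848, TLR9 with 5 nM ODN2006. After 22 h at 37 °C, secreted alkaline phosphatase was detected colorimetrically and inhibition calculated against DMSO and known-inhibitor controls.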

human TLR8 = target: T2, human TLR8 (Homo sapiens, UniProt Q9NR97); test: TLR8 inhibition reporter assay (HEK-Blue SEAP); conditions: HEK-Blue cells overexpressing human TLR8, stimulated with R848 15.9 μM, 22 hour incubation
T2 construct: host or cells: HEK-Blue cells
T2 sequence (Q9NR97 27-1041): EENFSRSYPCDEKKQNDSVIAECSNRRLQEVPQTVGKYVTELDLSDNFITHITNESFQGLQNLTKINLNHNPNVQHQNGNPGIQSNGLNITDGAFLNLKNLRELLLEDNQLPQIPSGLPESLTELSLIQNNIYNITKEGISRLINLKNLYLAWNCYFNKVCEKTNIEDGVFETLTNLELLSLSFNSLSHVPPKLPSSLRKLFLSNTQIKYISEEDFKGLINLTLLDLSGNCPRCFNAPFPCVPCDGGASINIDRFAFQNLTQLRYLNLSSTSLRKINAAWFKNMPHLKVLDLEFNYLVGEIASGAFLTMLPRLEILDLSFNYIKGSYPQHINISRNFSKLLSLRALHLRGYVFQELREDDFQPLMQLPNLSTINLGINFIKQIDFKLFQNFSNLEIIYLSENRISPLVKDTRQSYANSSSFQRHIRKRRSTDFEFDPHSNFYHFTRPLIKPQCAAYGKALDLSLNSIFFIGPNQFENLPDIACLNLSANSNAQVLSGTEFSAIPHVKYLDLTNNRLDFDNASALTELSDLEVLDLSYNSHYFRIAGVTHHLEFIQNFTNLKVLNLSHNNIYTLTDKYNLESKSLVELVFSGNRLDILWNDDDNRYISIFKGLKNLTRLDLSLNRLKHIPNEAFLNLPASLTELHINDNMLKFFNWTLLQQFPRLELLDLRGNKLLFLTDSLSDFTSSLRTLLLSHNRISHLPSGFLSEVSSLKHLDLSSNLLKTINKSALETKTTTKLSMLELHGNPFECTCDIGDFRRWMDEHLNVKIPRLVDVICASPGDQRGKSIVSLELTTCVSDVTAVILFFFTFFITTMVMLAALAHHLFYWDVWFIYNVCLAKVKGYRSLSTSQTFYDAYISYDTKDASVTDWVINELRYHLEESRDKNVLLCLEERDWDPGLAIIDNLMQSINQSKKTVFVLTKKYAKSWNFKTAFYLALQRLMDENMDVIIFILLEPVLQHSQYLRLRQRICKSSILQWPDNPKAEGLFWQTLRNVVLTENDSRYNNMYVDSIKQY
Outline: as §1

human TLR9 = target: T3, human TLR9 (Homo sapiens, UniProt Q9NR96); test: TLR9 inhibition reporter assay (HEK-Blue SEAP); conditions: HEK-Blue cells overexpressing human TLR9, stimulated with ODN2006 5 nM, 22 hour incubation
T3 construct: host or cells: HEK-Blue cells
T3 sequence (Q9NR96 26-1032): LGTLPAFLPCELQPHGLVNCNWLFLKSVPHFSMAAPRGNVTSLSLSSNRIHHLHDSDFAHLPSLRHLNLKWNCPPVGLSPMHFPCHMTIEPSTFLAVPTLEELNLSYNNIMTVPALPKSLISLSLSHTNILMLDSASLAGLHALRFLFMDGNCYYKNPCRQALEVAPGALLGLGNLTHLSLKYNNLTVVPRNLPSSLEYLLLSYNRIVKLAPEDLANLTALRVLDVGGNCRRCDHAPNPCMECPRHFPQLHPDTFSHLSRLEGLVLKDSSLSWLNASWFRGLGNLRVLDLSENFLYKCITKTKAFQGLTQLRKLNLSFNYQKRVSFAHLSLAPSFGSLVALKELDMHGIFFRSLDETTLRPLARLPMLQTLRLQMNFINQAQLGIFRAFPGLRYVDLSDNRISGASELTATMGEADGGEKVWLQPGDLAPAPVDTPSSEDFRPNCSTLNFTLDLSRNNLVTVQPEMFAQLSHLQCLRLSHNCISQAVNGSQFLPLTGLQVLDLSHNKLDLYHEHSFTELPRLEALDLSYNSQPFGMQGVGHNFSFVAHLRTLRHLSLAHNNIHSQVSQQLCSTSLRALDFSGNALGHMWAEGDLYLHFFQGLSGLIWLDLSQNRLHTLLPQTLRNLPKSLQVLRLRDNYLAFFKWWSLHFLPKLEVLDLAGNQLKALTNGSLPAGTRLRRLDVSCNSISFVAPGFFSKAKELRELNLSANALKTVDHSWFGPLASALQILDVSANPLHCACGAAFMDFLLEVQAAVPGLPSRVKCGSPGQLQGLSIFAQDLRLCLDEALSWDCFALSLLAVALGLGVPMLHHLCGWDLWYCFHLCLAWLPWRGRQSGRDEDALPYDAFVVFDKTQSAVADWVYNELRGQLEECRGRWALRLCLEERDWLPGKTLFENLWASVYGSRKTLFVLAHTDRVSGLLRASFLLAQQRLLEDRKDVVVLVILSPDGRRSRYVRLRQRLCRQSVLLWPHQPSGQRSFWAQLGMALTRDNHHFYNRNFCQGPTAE
Outline: as §1

IC50 (human TLR7) | IC50 (human TLR8) | IC50 (human TLR9) | SMILES
7.8 nM | 16.2 nM | 5110 nM | Cc1c(-c2[nH]c3ccc(OC4CCN(C(=O)CN(C)C)CC4)cc3c2C(C)C)cn(C)c(=O)c1C [Example 104, 5-(5-((1-(dimethylglycyl)piperidin-4-yl)oxy)-3-isopropyl-1H-indol-2-yl)-1,3,4-trimethylpyridin-2(1H)-one]
26.4 nM | 11 nM | 18700 nM | Cc1cc(-c2[nH]c3ccc(OCCN4CCC(F)(F)CC4)cc3c2C(C)C)cn2ncnc12 [Example 3, 6-(5-(2-(4,4-difluoropiperidin-1-yl)ethoxy)-3-isopropyl-1H-indol-2-yl)-8-methyl-[1,2,4]triazolo[1,5-a]pyridine]
2.3 nM | 35.9 nM | 9750 nM | Cc1cc(-c2[nH]c3ccc(OC4CCN(C(=O)CN(C)C)CC4)cc3c2C(C)C)cn2ncnc12 [Example 101, 2-(dimethylamino)-1-(4-((3-isopropyl-2-(8-methyl-[1,2,4]triazolo[1,5-a]pyridin-6-yl)-1H-indol-5-yl)oxy)piperidin-1-yl)ethan-1-one]
119 nM | 12.7 nM | 3120 nM | CNCCOc1ccc2[nH]c(-c3ccnc(C)c3)c(C(C)C)c2c1 [Example 172, 2-((3-isopropyl-2-(2-methylpyridin-4-yl)-1H-indol-5-yl)oxy)-N-methylethan-1-amine]
1.9 nM | 10 nM | 300 nM | CNCC(=O)N1CCC(Oc2ccc3[nH]c(-c4cc(C)nc(C)c4)c(C(C)C)c3c2)CC1 [Example 109, 1-(4-((2-(2,6-dimethylpyridin-4-yl)-3-isopropyl-H-indol-5-yl)oxy)piperidin-1-yl)-2-(methylamino)ethanone]
2.9 nM | 50.2 nM | 1560 nM | Cc1c(-c2[nH]c3ccc(OC4CCN(C(=O)CN(C)C)CC4)cc3c2C(C)C)cn2cnnc2c1C [Example 105, 1-(4-((2-(7,8-dimethyl-[1,2,4]triazolo[4,3-a]pyridin-6-yl)-3-isopropyl-1H-indol-5-yl)oxy)piperidin-1-yl)-2-(dimethylamino)ethan-1-one]
4.3 nM | 3 nM | 300 nM | Cc1cc(-c2[nH]c3ccc(OCC4CCN(CC(C)(C)O)CC4)cc3c2C(C)C)cc(C)n1 [Example 24, 1-(4-(((2-(2,6-dimethylpyridin-4-yl)-3-isopropyl-1H-indol-5-yl)oxy)methyl)piperidin-1-yl)-2-methylpropan-2-ol]
98 nM | 11.6 nM | 359 nM | COc1ccc(-c2[nH]c3ccc(OCC(=O)N[C@H]4CCNC4)cc3c2C(C)C)cc1OC [Example 134, (S)-2-((2-(3,4-dimethoxyphenyl)-3-isopropyl-1H-indol-5-yl)oxy)-N-(pyrrolidin-3-yl)acetamide]
2.1 nM | 2.9 nM | 1350 nM | Cc1cc(-c2[nH]c3ccc(OC4CCN(CC(=O)N(C)C)CC4)cc3c2C(C)C)cn2ncnc12 [Example 85, 2-(4-((3-isopropyl-2-(8-methyl-[1,2,4]triazolo[1,5-a]pyridin-6-yl)-1H-indol-5-yl)oxy)piperidin-1-yl)-N,N-dimethylacetamide]
84.2 nM | 5.8 nM | 2810 nM | Cc1cc(-c2[nH]c3ccc(OCC4CCN(C(C)C)CC4)cc3c2C(C)C)ccn1 [Example 191, 3-isopropyl-5-((1-isopropylpiperidin-4-yl)methoxy)-2-(2-methylpyridin-4-yl)-1H-indole]
33.6 nM | 14.5 nM | 18600 nM | Cc1c(-c2[nH]c3ccc(OC4CCN(C(C)C)CC4)cc3c2C(C)C)cn2cnnc2c1C [Example 57, 6-(3-isopropyl-5-((1-isopropylpiperidin-4-yl)oxy)-1H-indol-2-yl)-7,8-dimethyl-[1,2,4]triazolo[4,3-a]pyridine]
2.6 nM | 4.3 nM | 1620 nM | Cc1c(-c2[nH]c3ccc(OCC4CCN(C(C)C)CC4)cc3c2C(C)C)cn2cnnc2c1C [Example 55, 6-(3-isopropyl-5-((1-isopropylpiperidin-4-yl)methoxy)-1H-indol-2-yl)-7,8-dimethyl-[1,2,4]triazolo[4,3-a]pyridine]
7.6 nM | 16.5 nM | 6870 nM | Cc1c(-c2[nH]c3ccc(OCC4CCN(CC(=O)N(C)C)CC4)cc3c2C(C)C)cn2cnnc2c1C [Example 89, 2-(4-(((2-(7,8-dimethyl-[1,2,4]triazolo[4,3-a]pyridin-6-yl)-3-isopropyl-1H-indol-5-yl)oxy)methyl)piperidin-1-yl)-N,N-dimethylacetamide]
65.1 nM | 3.1 nM | 987 nM | Cc1cc(-c2[nH]c3ccc(OCCN4CCCC4)cc3c2C(C)C)ccn1 [Example 166, 3-isopropyl-2-(2-methylpyridin-4-yl)-5-(2-(pyrrolidin-1-yl)ethoxy)-1H-indole]

From patent publication US12030878B2 (BRISTOL-MYERS SQUIBB COMPANY, priority 2017, dated 2024)
